Experimental data reported in paper PMC11190208, “Bacterial c-di-GMP triggers metamorphosis of mussel larvae through a STING receptor” (NPJ Biofilms and Microbiomes, 2024).
pKd: −log10 of the molar value.

Target: T1, McSTING (Mytilus coruscus, UniProt A0A7U0FWW1)
T1 construct: gene STING-3; full-length 1-716aa, pColdIII vector, expressed in E. coli Rosetta
Test: SPR (OpenSPR, McSTING immobilised on COOH chip)
Format: binding
Excerpt: SPR (OpenSPR, McSTING immobilised on COOH chip) on McSTING | concentration-dependent binding of the recombinant protein McSTING to synthetic c-di-GMP with a KD of […]

T1 sequence (A0A7U0FWW1 entry or part of it): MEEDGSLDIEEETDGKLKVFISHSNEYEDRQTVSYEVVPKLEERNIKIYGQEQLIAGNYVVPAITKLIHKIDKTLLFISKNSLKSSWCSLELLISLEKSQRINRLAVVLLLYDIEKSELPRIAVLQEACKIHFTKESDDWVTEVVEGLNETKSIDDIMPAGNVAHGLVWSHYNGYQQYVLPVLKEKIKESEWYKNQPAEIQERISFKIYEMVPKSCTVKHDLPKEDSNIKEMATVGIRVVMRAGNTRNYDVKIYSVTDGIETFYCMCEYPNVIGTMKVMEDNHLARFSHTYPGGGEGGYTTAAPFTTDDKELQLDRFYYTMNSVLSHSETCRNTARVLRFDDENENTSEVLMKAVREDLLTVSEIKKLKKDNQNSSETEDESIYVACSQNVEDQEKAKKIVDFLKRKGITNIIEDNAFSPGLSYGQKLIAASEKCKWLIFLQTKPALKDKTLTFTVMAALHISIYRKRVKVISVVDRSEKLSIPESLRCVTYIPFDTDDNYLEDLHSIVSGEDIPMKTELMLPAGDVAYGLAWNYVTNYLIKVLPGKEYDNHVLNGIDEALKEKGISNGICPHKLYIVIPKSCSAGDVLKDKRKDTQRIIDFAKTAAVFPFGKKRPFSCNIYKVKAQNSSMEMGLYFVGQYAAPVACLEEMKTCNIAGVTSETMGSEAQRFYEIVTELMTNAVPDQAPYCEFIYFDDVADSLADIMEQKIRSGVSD

Compound `Nc1nc2c(ncn2[C@@H]2O[C@@H]3CO[P@](=O)(O)O[C@H]4[C@@H](O)[C@H](n5cnc6c(=O)[nH]c(N)nc65)O[C@@H]4CO[P@](=O)(O)O[C@H]3[C@H]2O)c(=O)[nH]1` [c-di-GMP] has a pKd of 4.37.
